According to patent publication EP0156224A2, “Novel benzoxathiin derivative, process for preparing them and pharmaceutical composition” (SUNTORY LIMITED, priority 1984, dated 1985):
Like-named read-outs stand apart in the source and are kept apart here.

Legend:
[1] = tested on: β-Receptor; assay: β-receptor blocking effect: 3H-dihydroalprenolol binding to synaptosome membrane of rat brain
Method: Spraque-Dawley male rats having 150 - 200 g body weight were decapitated, and the brains were quickly taken out and, after decortication, frozen at -70°C. After freezing overnight at -70°C, the thawed brain was homogenized with a buffer [0.25 mole sucrose, 5 mmole tris(hydroxymethyl)aminomethane hydrochloride, 1 mmole magnesium chloride, pH 7.4] in an amount of 8 times the weight of the brain. The homogenate was centrifuged at 800 x g for 20 minutes, and the supernatant was centrifuged at 14,000 x g for 14 minutes, the deposit of which was washed three times with the above-mentioned buffer. The deposit finally obtained was suspended again in a buffer of 75 mmole tris(hydroxymethyl)aminomethane and 25 mmole magnesium chloride (pH 7.4) to form a membrane specimen.
To 50 1 of the membrane specimen were added 50 1 of ^3H-dihydroalprenolol (^3H-OHA) and 50 1 of the mixture of the test frug and the buffer, such that the total volume was adjusted to 150 1, and the mixture was incubated at 37°C for 10 minutes.
The reaction was stopped by adding an ice-cooled mixture of 50 mmole tris(hydroxymethyl)aminomethane hydrochloride and 17 mmole magnesium chloride (pH 7.4), and the mixture was filtered under reduced pressure through a Whatman GF/B glassfiber. The filter was washed three times and dried, and a toluene type scintillator was added to measure the radioactivity.
. In the measurement, the amount obtained by subtracting the bondings obtained in the presence of 10^-5 mole propranolol from the total bondings was considered to represent the specific bondings of the S-receptor. In addition, the determination of protein was carried out according to the method of Lowry et al. [Lowry, O.H. et al., J. Biol. Chem., 193, 265-275 (1951)].

[2] = tested on: ddy male mouse; assay: Anti-arrhythmic effect: prevention of chloroform-induced ventricular flutter and fibrillation; assay type: in vivo; details: ip, 0.5 h, read-out: Anti-arrhythmic effect (ED50)
Method: When a compound showing an anti-arrhythmic effect is previously administered, such an irregular ventricular appearance is prevented. The compound of this invention was intraperioneally administered in various dosages to the groups of 29 - 40 mice. After 30 minutes the mice were subjected to the inhalation of chloroform, and the preventive ratios of the venticular flutter and fibrillation were measured for respective dosages.

[3] = in vivo; details: mouse, ddy male mice, mortality within 1 week
[4] = tested on: SHR (spontaneous hypertensive rat); assay: Effect on mean blood pressure in conscious spontaneously hypertensive rats; assay type: in vivo; details: for mean blood pressure % Exchange: conscious SHR, mean ±SEM
Description: In order to measure the blood pressure of a SHR (spontaneous hypertensive rat), a polyethylene tube was inserted into an artery to a level of the abdominal aorta through the crural artery, and the other end of the tube was tightly stoppered by a metal rod, extended subcutaneously and exposed out of the body at the posterior of the neck and fixed by suturation to the surrounding skin. The tube was filled with 500 U of heparin.
On the day subsequent to the operation, the blood pressure was measured without anesthetization or restriction using a pressure transducer and continously recorded on a thermal recording system together with the heart rate which was measured by driving a tachometer with the pulse wave of blood pressure.
The test drugs were dissolved in physiological saline and administered using a sound (p.o.)

[5] = 10^-5 mole test compound, 10 µM
[6] = intraperitoneal, chloroform inhalation after 30 minutes, mice
[7] = iv, caudal vein, read-out: Acute toxicity (LD50) intra-venous
[8] = po, in stomach, read-out: Acute toxicity (LD50) in stomach

What does the source list for `CNCC(O)COc1cccc2c1OS(=O)(=O)CC2` (stereo not drawn) [Example 1, 8-(3-methylamino-2-hydroxypropoxy)-3,4-dihydro-1,2-benzoxathiin-2,2-dioxide]?
β-Receptor blocking effect Inhibition (%) [1, 5]: 73.9%; β-Receptor blocking effect Inhibition (%) ([1]; 10^-6 mole test compound, 1 µM): 35.4%

Which “β-Receptor blocking effect Inhibition (%)” value [1, 5] does the source give for `CN(C)CC(O)COc1cccc2c1OS(=O)(=O)CC2` (stereo not drawn) [Example 2, 8-(3-dimethylamino-2-hydroxypropoxy)-3,4-dihydro-1,2-benzoxathiin-2,2-dioxide] here?
Its value is 62.6%.

What about the “β-Receptor blocking effect Inhibition (%)” value ([1]; 10^-6 mole test compound, 1 µM) of the same molecule?
Its value is 17.1%.

With `CC(C)NCC(O)COc1cccc2c1OS(=O)(=O)CC2` (stereo not drawn) [Example 3, 8-(3-isopropylamino-2-hydroxypropoxy)-3,4-dihydro-1,2-benzoxathiin-2,2-dioxide] as the molecule, how does the “β-Receptor blocking effect Inhibition (%)” value [1, 5] read?
Its value is 91.6%.

What about the “β-Receptor blocking effect Inhibition (%)” value ([1]; 10^-6 mole test compound, 1 µM) of the same molecule?
The value was 97.6%.

What about the ED50 [2, 6] of the same molecule?
The ED50 was 0.23 mg/kg.

What about the LD50 at 168 h [3, 7] of the same molecule?
Its LD50 at 168 h is 68.2 mg/kg.

What about the LD50 at 168 h [3, 8] of the same molecule?
The LD50 at 168 h was greater than 500 mg/kg.

Which results are given for `CC(C)(C)NCC(O)COc1cccc2c1OS(=O)(=O)CC2` (stereo not drawn) [Example 4, 8-(3-t-butylamino-2-hydroxypropoxy)-3,4-dihydro-l,2-benzoxathiin-2,2-dioxide]?
β-Receptor blocking effect Inhibition (%) [1, 5]: 91.4%; β-Receptor blocking effect Inhibition (%) ([1]; 10^-6 mole test compound, 1 µM): 96.3%; ED50 [2, 6]: 0.03 mg/kg; mean blood pressure % Exchange ([4]; 0.1 mg/kg p.o., 10 min): 6.4 ± 3.5%; mean blood pressure % Exchange ([4]; 0.1 mg/kg p.o., 20 min): 4.6 ± 3.2%; mean blood pressure % Exchange ([4]; 0.1 mg/kg p.o., 30 min): 4.1 ± 2.6%; mean blood pressure % Exchange ([4]; 0.1 mg/kg p.o., 60 min): -4.2 ± 3.8%; mean blood pressure % Exchange ([4]; 0.1 mg/kg p.o., 90 min): -6.5 ± 3.2%; mean blood pressure % Exchange ([4]; 0.1 mg/kg p.o., 120 min): -7.3 ± 5.9%; mean blood pressure % Exchange ([4]; 0.1 mg/kg p.o., 3 hr): -8.9 ± 3.0%; mean blood pressure % Exchange ([4]; 0.1 mg/kg p.o., 4 hr): -13.0 ± 2.5 %; mean blood pressure % Exchange ([4]; 0.1 mg/kg p.o., 5 hr): -14.7 ± 2.5 %; mean blood pressure % Exchange ([4]; 0.1 mg/kg p.o., 6 hr): -14.8 ± 2.4 %; mean blood pressure % Exchange ([4]; 0.1 mg/kg p.o., 24 hr): -2.8 ± 4.2%; mean blood pressure % Exchange ([4]; 1 mg/kg p.o., 10 min): 1.4 ± 1.2%; mean blood pressure % Exchange ([4]; 1 mg/kg p.o., 20 min): -0.3 ± 1.7%; mean blood pressure % Exchange ([4]; 1 mg/kg p.o., 30 min): -8.1 ± 2.9 %; mean blood pressure % Exchange ([4]; 1 mg/kg p.o., 60 min): -12.0 ± 4.3 %; mean blood pressure % Exchange ([4]; 1 mg/kg p.o., 90 min): -10.9 ± 2.8 %; mean blood pressure % Exchange ([4]; 1 mg/kg p.o., 120 min): -14.5 ± 4.3 %; mean blood pressure % Exchange ([4]; 1 mg/kg p.o., 3 hr): -16.3 ± 4.1 %; mean blood pressure % Exchange ([4]; 1 mg/kg p.o., 4 hr): -20.0 ± 3.7 %; mean blood pressure % Exchange ([4]; 1 mg/kg p.o., 5 hr): -24.5 ± 4.0 %; mean blood pressure % Exchange ([4]; 1 mg/kg p.o., 6 hr): -24.1 ± 3.3 %; mean blood pressure % Exchange ([4]; 1 mg/kg p.o., 24 hr): -11.5 ± 6.2%; duration of hypotensive effect ([4]; result in words, SHR, p.o., after 24 hours): remains effective even after 24 hours; hypotensive effect ([4]; result in words, SHR, p.o., compared with carteolol): excellent hypotensive effect at almost the same level as carteolol; LD50 at 168 h [3, 7]: 59.2 mg/kg; LD50 at 168 h [3, 8]: > 500 mg/kg

Which results are given for `CCC(C)NCC(O)COc1cccc2c1OS(=O)(=O)CC2` (stereo not drawn) [Example 5, 8-(3-sec-butylamino-2-hydroxypropoxy)-3,4-dihydro-1,2-benzoxathiin-2,2-dioxide]?
β-Receptor blocking effect Inhibition (%) [1, 5]: 95.3%; β-Receptor blocking effect Inhibition (%) ([1]; 10^-6 mole test compound, 1 µM): 83.0%; ED50 [2, 6]: 1.3 mg/kg; LD50 at 168 h [3, 7]: 68.2 mg/kg; LD50 at 168 h [3, 8]: > 500 mg/kg

What does the source list for `CC(C)CNCC(O)COc1cccc2c1OS(=O)(=O)CC2` (stereo not drawn) [Example 6, 8-(3-isobutylamino-2-hydroxypropoxy)-3,4-dihydro-l,2-benzoxathiin-2,2-dioxide]?
β-Receptor blocking effect Inhibition (%) [1, 5]: 81.9%; β-Receptor blocking effect Inhibition (%) ([1]; 10^-6 mole test compound, 1 µM): 41.7%

For `COc1ccc(CCNCC(O)COc2cccc3c2OS(=O)(=O)CC3)cc1OC` (stereo not drawn) [Example 7, 8-[3-(3,4-dimethoxyphenethylamino)-2-hydroxy-propoxy]-3,4-dihydro-1,2-benzoxathiin-2,2-dioxide], which “β-Receptor blocking effect Inhibition (%)” value [1, 5] is on record?
Its value is 90.1%.

And the “β-Receptor blocking effect Inhibition (%)” value ([1]; 10^-6 mole test compound, 1 µM)?
Its value is 75.2%.

For `CCCC(=O)Nc1ccc(OCC(O)CNC(C)C)c(C(C)=O)c1` (stereo not drawn) [acebutolol, reference compound], which ED50 [2, 6] is on record?
Its ED50 is 47 mg/kg.

With `CC(C)(C)NCC(O)COc1cccc2c1CCC(=O)N2` (stereo not drawn) [carteolol, reference compound] as the molecule, how does the ED50 [2, 6] read?
The ED50 was 400 mg/kg.

And the “mean blood pressure % Exchange” value ([4]; 0.1 mg/kg p.o., 10 min)?
Its value is 1.4 ± 2.1%.

And the “mean blood pressure % Exchange” value ([4]; 0.1 mg/kg p.o., 20 min)?
The value was -9.2 ± 4.0%.

What about the “mean blood pressure % Exchange” value ([4]; 0.1 mg/kg p.o., 30 min) of the same molecule?
Its value is -11.3 ± 3.9 %.

And the “mean blood pressure % Exchange” value ([4]; 0.1 mg/kg p.o., 90 min)?
The value was -18.1 ± 3.7 %.

And the “mean blood pressure % Exchange” value ([4]; 0.1 mg/kg p.o., 120 min)?
Its value is -12.7 ± 6.5%.

What about the “mean blood pressure % Exchange” value ([4]; 0.1 mg/kg p.o., 3 hr) of the same molecule?
The value was -15.4 ± 3.3 %.

What about the “mean blood pressure % Exchange” value ([4]; 0.1 mg/kg p.o., 4 hr) of the same molecule?
The value was -15.1 ± 3.7 %.

What about the “mean blood pressure % Exchange” value ([4]; 0.1 mg/kg p.o., 5 hr) of the same molecule?
Its value is -18.8 ± 1.3 %.

What about the “mean blood pressure % Exchange” value ([4]; 0.1 mg/kg p.o., 6 hr) of the same molecule?
The value was -20.8 ± 1.7 %.

And the “mean blood pressure % Exchange” value ([4]; 0.1 mg/kg p.o., 24 hr)?
Its value is -2.1 ± 2.5%.

And the “mean blood pressure % Exchange” value ([4]; 1 mg/kg p.o., 10 min)?
Its value is 2.5 ± 3.2%.

And the “mean blood pressure % Exchange” value ([4]; 1 mg/kg p.o., 20 min)?
The value was -1.4 ± 2.6%.

And the “mean blood pressure % Exchange” value ([4]; 1 mg/kg p.o., 30 min)?
The value was -5.1 ± 3.6%.

And the “mean blood pressure % Exchange” value ([4]; 1 mg/kg p.o., 60 min)?
Its value is -11.7 ± 3.3 %.

And the “mean blood pressure % Exchange” value ([4]; 1 mg/kg p.o., 90 min)?
Its value is -14.7 ± 3.6 %.

And the “mean blood pressure % Exchange” value ([4]; 1 mg/kg p.o., 120 min)?
The value was -23.8 ± 3.0 %.

What about the “mean blood pressure % Exchange” value ([4]; 1 mg/kg p.o., 3 hr) of the same molecule?
The value was -23.1 ± 4.8 %.

And the “mean blood pressure % Exchange” value ([4]; 1 mg/kg p.o., 4 hr)?
The value was -24.4 ± 4.2 %.

And the “mean blood pressure % Exchange” value ([4]; 1 mg/kg p.o., 5 hr)?
Its value is -24.7 ± 4.7 %.

What about the “mean blood pressure % Exchange” value ([4]; 1 mg/kg p.o., 6 hr) of the same molecule?
Its value is -21.3 ± 4.2 %.

And the “mean blood pressure % Exchange” value ([4]; 1 mg/kg p.o., 24 hr)?
Its value is -2.1 ± 4.5%.

What about the LD50 at 168 h [3, 7] of the same molecule?
The LD50 at 168 h was 38 mg/kg.

For `CC(C)NCC(O)COc1cccc2ccccc12` (stereo not drawn) [propranolol, reference compound], which ED50 [2] is on record?
The ED50 was 2.2 mg/kg.
